Source: patent US20050182011A1, “Inhibition of TRP channels as a treatment for cardiac hypertrophy and heart failure” (priority 2003, published 2005)
“Also recorded” adds a separate entry of the source.

Key:
[1] = system: ryanodine receptors; conditions: Maruyama et al., 1997; cited from earlier work
[2] = system: calcium-activated chloride channels; conditions: Chorna-Ornan et al., 2001; cited from earlier work
[3] = system: purinergic P2X receptor calcium channels; conditions: cited from earlier work
[4] = system: arachidonic acid-activated calcium channels; conditions: Luo et al., 2001; cited from earlier work
[5] = system: voltage-gated calcium channels; conditions: Maruyama et al., 1997; cited from earlier work
[6] = system: MCIP1 protein (indicator of calcineurin activity) in NRVM; assay: Western blot of MCIP1 protein in NRVM; format: cell-based, rat; conditions: for expression of 38 kDa calcineurin-independent MCIP1 isoform: NRVM
Protocol: (§1) Western Blots. For protein sample preparation, cultured cells were lysed in extraction buffer (50 mM Tris, pH 7.5, 150 mM NaCl, 1% Triton X-100, 0.5% deoxycholic acid, 0.1% SDS) supplemented with protease inhibitors (1 mM AEBSF, 10 mg/ml aprotinin, 0.1 mM leupeptin, 2 mM EDTA). Left ventricle samples were ground under liquid nitrogen and solubilized in extraction buffer containing protease inhibitors. Homogenates were centrifuged 10 min at 4° C. at 16,000 g and supernatants recovered. Protein concentrations were determined by the bicinchoninic acid method (BCA Protein Assay, Pierce) with bovine serum albumin as a standard. Equivalent quantities of protein samples ([…]) were denatured in Laemmli buffer and resolved on Tris-glycine SDS-PAGE gels (4-20% acrylamide gradient, Invitrogen). Resolved proteins were transferred to nitrocellulose membranes, blocked in 5% nonfat dry milk, and probed with rabbit polyclonal primary antibody (diluted in TBST; 50 mM Tris, pH 7.5, 150 mM NaCl, 0.1% Tween-20) supplemented with 5% nonfat dry milk. Primary antibodies used include: anti-TRPC1 and TRPC3 (Alomone Labs) and anti-MCIP1 (Myogen, Inc). Membranes were washed, probed with a goat anti-rabbit horseradish peroxidase-conjugated secondary antibody (Southern Biotechnology Associates), and processed for enhanced chemiluminescence (SuperSignal reagent, Pierce). To verify equivalent protein loading, membranes were subsequently reprobed with a polyclonal rabbit antibody to the housekeeping gene IP90-calnexin. Densitometric analysis of immunoreactive band images was performed using a ChemiImager (Alpha Innotech).

[7] = system: S-nitrosylation-activated calcium channels; conditions: Van Rossum et al., 2000; cited from earlier work
[8] = system: neonatal rat ventricular myocytes (NRVM)
Protocol: NRVM culture. […] Myocyte preparations were pre-plated in Dulbecco's modified Eagle's medium (DMEM, Cellgro), supplemented with 10% (v/v) fetal bovine serum (FBS, HyClone), 4 mM L-glutamine and 1% penicillin/streptomycin for 1 hr at 37° C. to reduce fibroblast contamination, then plated at a density of 2.5×10^5 cells per well on 6-well tissue culture plates (or 10,000 cells/well on 96-well tissue culture plates) coated with a 0.2% (w/v) gelatin solution.
For infection with calcineurin adenovirus, NRVM were exposed to adenovirus at a multiplicity of infection (MOI) of 25 for 48 h prior to analysis.
Hypertrophy and Toxicity Assays. Primary hypertrophy endpoints for NRVM included quantitation of ANF secretion, total cellular protein and cell volume. ANF in media supernatants was quantitated by competitive ELISA using a monoclonal anti-ANF antibody (Biodesign) and a biotinylated ANF peptide (Phoenix Peptide). Total cellular protein was quantitated by standard Coomassie dye-binding assay; cells were lysed in protein assay reagent (BioRad) and absorbance at A595 was measured after 1 hr. […] After recovery by centrifugation, cell pellets were washed in PBS, resuspended in 10 ml IsoFlow electrolyte solution (Beckman-Coulter) and analyzed with a Z2 Coulter Particle Counter and Size Analyzer (Beckman-Coulter). […]

[9] = system: TRPC3 protein in NRVM; assay: Western blot of TRPC3 protein in cultured NRVM exposed to hypertrophic stimuli; format: cell-based, rat; conditions: 48 h, phenylephrine, FBS 10%, calcineurin adenovirus MOI 25
Protocol: as §1, with “To verify equivalent protein loading, membranes were subsequently reprobed with a polyclonal rabbit antibody to the housekeeping gene IP90-calnexin. Densitometric analysis of immunoreactive band images was performed using a ChemiImager (Alpha Innotech).” left out

[10] = Isoproterenol infusion model, heart weight to body weight ratio; format: in vivo; conditions: rat, isoproterenol 4.8 mg/kg/d by osmotic minipump, 4 days
Protocol: Isoproterenol Infusion. For pharmacologic induction of hypertrophy in vivo, nine to ten-week-old male Sprague-Dawley rats were anesthetized via passive inhalation of 2.0% isoflurane. When a level of surgical anesthesia was reached, an osmotic minipump (Alzet model 2001, Alza Corp., Palo Alto, Calif.) containing either vehicle (0.1% ascorbic acid in 0.9% NaCl), or isoproterenol (4.8 mg/kg/d) was subcutaneously implanted into the back between the scapulae followed by closure with 3-0 silk sutures. After 4 days of recovery, animals were sacrificed and left ventricular tissue processed for Western blot analysis as described above. Average heart weight to body weight ratios in isoproterenol versus vehicle-infused rats increased 48% (data not shown).

[11] = system: TRPC channel protein in left ventricle; assay: Isoproterenol infusion model, Western blot of TRPC isoforms in left ventricle; format: in vivo, rat
Protocol: as §1, with “Innotech). Isoproterenol Infusion. For pharmacologic induction of hypertrophy in vivo, nine to ten-week-old male Sprague-Dawley rats were anesthetized via passive inhalation of 2.0% isoflurane. When a level of surgical anesthesia was reached, an osmotic minipump (Alzet model 2001, Alza Corp., Palo Alto, Calif.) containing either vehicle (0.1% ascorbic acid in 0.9% NaCl), or isoproterenol (4.8 mg/kg/d) was subcutaneously implanted into the back between the scapulae followed by closure with 3-0 silk sutures. After 4 days of recovery, animals were sacrificed and left ventricular tissue processed for Western blot analysis as described above. Average heart weight to body weight ratios in isoproterenol versus vehicle-infused rats increased 48% (data not shown).” for “Innotech).”

NCCOB(c1ccccc1)c1ccccc1 [Compound 2-APB, 2-amino-ethoxydiphenyl borane]
inhibition of ryanodine receptors [1]: not inhibited | inhibition of calcium-activated chloride channels [2]: not inhibited | inhibition of purinergic P2X receptor calcium channels [3]: not inhibited | inhibition of arachidonic acid-activated calcium channels [4]: not inhibited | inhibition of voltage-gated calcium channels [5]: not inhibited | expression of 38 kDa calcineurin-independent MCIP1 isoform [6]: unaffected | PE-dependent induction of 28 kDa MCIP1 protein ([6]; PE-stimulated NRVM, increasing concentrations): attenuates; also recorded: attenuated induction | inhibition of S-nitrosylation-activated calcium channels [7]: not inhibited | cytotoxicity as measured by adenylate kinase release ([8]; 48 hours, 0.3 to 30 μM): no significant cytotoxicity; also recorded: no significant toxicity was observed at any concentration

CNC[C@H](O)c1cccc(O)c1 [phenylephrine]
expression of TRPC3 channel protein in cardiomyocytes [9]: significantly increased | expression of 38 kDa calcineurin-independent MCIP1 isoform [6]: unaffected | expression of 28 kDa MCIP1 protein ([6]; NRVM stimulated with phenylephrine): strongly induced

CC(C)NCC(O)c1ccc(O)c(O)c1 (stereo not drawn) [isoproterenol]
increase of average heart weight to body weight ratio versus vehicle-infused rats [10]: 48% | TRPC3 protein expression ([11]; Rat iso model): ↑ | TRPC5 protein expression ([11]; Rat iso model): increased expression | TRPC5 protein expression ([11]; Rat iso model, listed as iso): ↑ | induction of ventricular TRPC3 protein expression ([11]; rat, chronic isoproterenol infusion, densitometry): approximately three-fold

Triton X-100
fold change in AK release versus unstimulated control ([8]; 0.1% Triton X-100, positive control for cytotoxicity): approximately 6 fold
